Toxic doses and inconclusive results are not listed.
Test system: CD2F1 mice, L1210 leukemia ip, survival T/C
Experiment: NCI In Vivo Anticancer Drug Screen. Data for tumor model L1210 Leukemia (intraperitoneal) in CD2F1 (CDF1) mice
Conditions: higher = longer survival
Procedure, shortened: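 Implant tumor; dose compound or vehicle; measure endpoint in both groups; report treated divided by control.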

[1] = endpoint: mean survival time, dose: 100.0 mg/kg/injection, schedule: Q01DX009 (ip), vehicle: saline
[2] = endpoint: mean survival time, dose: 100.0 mg/kg/injection, schedule: Q04DX003 (ip), vehicle: saline with Tween-80
[3] = endpoint: mean survival time, dose: 200.0 mg/kg/injection, schedule: Q01DX009 (ip), vehicle: saline
[4] = endpoint: mean survival time, dose: 200.0 mg/kg/injection, schedule: Q04DX003 (ip), vehicle: saline with Tween-80
[5] = endpoint: mean survival time, dose: 100.0 mg/kg/injection, schedule: Q01DX001 (ip), vehicle: saline with Tween-80
[6] = endpoint: mean survival time, dose: 200.0 mg/kg/injection, schedule: Q01DX001 (ip), vehicle: saline with Tween-80
[7] = endpoint: mean survival time, dose: 400.0 mg/kg/injection, schedule: Q01DX001 (ip), vehicle: saline with Tween-80
[8] = endpoint: mean survival time, dose: 50.0 mg/kg/injection, schedule: Q01DX009 (ip), vehicle: saline with Tween-80
[9] = endpoint: mean survival time, dose: 12.5 mg/kg/injection, schedule: Q01DX009 (ip), vehicle: saline with Tween-80
[10] = endpoint: mean survival time, dose: 25.0 mg/kg/injection, schedule: Q01DX009 (ip), vehicle: saline with Tween-80
[11] = endpoint: mean survival time, dose: 25.0 mg/kg/injection, schedule: Q04DX003 (ip), vehicle: saline with Tween-80
[12] = endpoint: mean survival time, dose: 50.0 mg/kg/injection, schedule: Q04DX003 (ip), vehicle: saline with Tween-80
[13] = endpoint: mean survival time, dose: 400.0 mg/kg/injection, schedule: Q04DX003 (ip), vehicle: saline with Tween-80

COC(CCCl)c1ccc(Cl)cc1 (centres undefined) was tested, and the T/C (endpoint: mean survival time, dose: 50.0 mg/kg/injection, schedule: Q01DX009 (ip), vehicle: saline) was 96 % of control, the T/C [1] was 96 % of control and the T/C [2] was 96 % of control. The T/C [3] was 98 % of control and the T/C [4] was 87 % of control.

Nc1ccccc1C(=O)O was tested, and the T/C [5] was 97 % of control, the T/C [6] was 100 % of control and the T/C [7] was 100 % of control.

For CCCCCCCC(=O)/C=C/Sc1n[nH]c(=O)[nH]c1=O, the T/C (endpoint: mean survival time, dose: 12.5 mg/kg/injection, schedule: Q01DX005 (ip), vehicle: distilled water + Tween-80) was 94 % of control, the T/C (endpoint: mean survival time, dose: 25.0 mg/kg/injection, schedule: Q01DX005 (ip), vehicle: distilled water + Tween-80) was 102 % of control and the T/C (endpoint: mean survival time, dose: 50.0 mg/kg/injection, schedule: Q01DX005 (ip), vehicle: distilled water + Tween-80) was 107 % of control.

In the case of COc1ccccc1NC(=O)N(CCCl)N=O, the T/C (endpoint: mean survival time, dose: 1.5 mg/kg/injection, schedule: Q01DX009 (ip), vehicle: carboxymethylcellulose (CMC)) is reported as 115 % of control and the T/C (endpoint: mean survival time, dose: 3.5 mg/kg/injection, schedule: Q01DX009 (ip), vehicle: carboxymethylcellulose (CMC)) is reported as 168 % of control.

Nc1n[nH]c(=S)n1-c1ccccc1 was tested, and the T/C (endpoint: mean survival time, dose: 50.0 mg/kg/injection, schedule: Q01DX009 (ip), vehicle: acetone) was 98 % of control, the T/C (endpoint: mean survival time, dose: 100.0 mg/kg/injection, schedule: Q01DX009 (ip), vehicle: acetone) was 93 % of control and the T/C (endpoint: mean survival time, dose: 200.0 mg/kg/injection, schedule: Q01DX009 (ip), vehicle: acetone) was 98 % of control.

In the case of Cc1cc(I)ccc1NC(=S)Nc1ccccc1F, the T/C [8] is reported as 93 % of control, the T/C [5] is reported as 100 % of control and the T/C (endpoint: mean survival time, dose: 100.0 mg/kg/injection, schedule: Q01DX009 (ip), vehicle: saline with Tween-80) is reported as 90 % of control. The T/C [6] was 96 % of control, the T/C (endpoint: mean survival time, dose: 200.0 mg/kg/injection, schedule: Q01DX009 (ip), vehicle: saline with Tween-80) was 93 % of control and the T/C [7] was 96 % of control.

With C=Cc1c(C)c2cc3[nH]c(cc4nc(cc5nc(cc1[nH]2)C(C)=C5CCC(=O)O)C(CCC(=O)O)=C4C)c(C)c3C=C the T/C [9] was 88 % of control, the T/C [10] was 88 % of control and the T/C [8] was 88 % of control.

With CCOC(=O)NC(S(=O)(=O)O)S(=O)(=O)O.[Tl] the T/C (endpoint: mean survival time, dose: 6.25 mg/kg/injection, schedule: Q01DX001 (ip), vehicle: saline with Tween-80) was 98 % of control, the T/C (endpoint: mean survival time, dose: 12.5 mg/kg/injection, schedule: Q01DX001 (ip), vehicle: saline with Tween-80) was 90 % of control and the T/C (endpoint: mean survival time, dose: 25.0 mg/kg/injection, schedule: Q01DX001 (ip), vehicle: saline with Tween-80) was 98 % of control.

For O=C1C2CCCCC2C(=O)N1c1cccc2cccnc12 (centres undefined), the T/C (endpoint: mean survival time, dose: 50.0 mg/kg/injection, schedule: Q01DX001 (ip), vehicle: saline with Tween-80) was 98 % of control, the T/C [5] was 95 % of control and the T/C [6] was 95 % of control.

For CNCC(O)c1ccc(O)cc1 (centres undefined), the T/C [1] was 94 % of control and the T/C [3] was 91 % of control.

For Brc1ccc(-c2csc(Nc3nc(-c4ccc(Br)cc4)cs3)n2)cc1, the T/C [9] was 86 % of control, the T/C [10] was 96 % of control and the T/C [11] was 97 % of control. The T/C [8] was 96 % of control, the T/C [12] was 87 % of control and the T/C [2] was 88 % of control. The T/C [13] was 92 % of control.

With CCOC(=O)c1cnn(C)c1N the T/C (endpoint: mean survival time, dose: 100.0 mg/kg/injection, schedule: Q01DX001 (ip), vehicle: saline) was 103 % of control, the T/C [2] was 102 % of control and the T/C (endpoint: mean survival time, dose: 200.0 mg/kg/injection, schedule: Q01DX001 (ip), vehicle: saline) was 103 % of control. The T/C [4] was 102 % of control, the T/C (endpoint: mean survival time, dose: 400.0 mg/kg/injection, schedule: Q01DX001 (ip), vehicle: saline) was 97 % of control and the T/C [13] was 104 % of control.

CN(/N=C/c1ccccc1)C(=N)N was tested, and the T/C (endpoint: mean survival time, dose: 15.62 mg/kg/injection, schedule: Q04DX003 (ip), vehicle: saline) was 101 % of control, the T/C (endpoint: mean survival time, dose: 31.25 mg/kg/injection, schedule: Q04DX003 (ip), vehicle: saline) was 107 % of control and the T/C (endpoint: mean survival time, dose: 62.5 mg/kg/injection, schedule: Q04DX003 (ip), vehicle: saline) was 103 % of control.

With CCOC(=O)c1nc(N)c2c(CC#N)nn(-c3ccccc3)c2n1 the T/C (endpoint: mean survival time, dose: 12.5 mg/kg/injection, schedule: Q01DX005 (ip), vehicle: other) was 90 % of control, the T/C (endpoint: mean survival time, dose: 25.0 mg/kg/injection, schedule: Q01DX005 (ip), vehicle: other) was 93 % of control and the T/C (endpoint: mean survival time, dose: 50.0 mg/kg/injection, schedule: Q01DX005 (ip), vehicle: other) was 93 % of control. The T/C (endpoint: mean survival time, dose: 100.0 mg/kg/injection, schedule: Q01DX005 (ip), vehicle: other) was 87 % of control and the T/C (endpoint: mean survival time, dose: 200.0 mg/kg/injection, schedule: Q01DX005 (ip), vehicle: other) was 93 % of control.

With O=C1OC(c2ccccc2)(C2(c3ccccc3)OC(=O)c3ccccc32)c2ccccc21 (centres undefined) the T/C [2] was 89 % of control.

With NC(N)=Nc1ccc(C(=O)O)cc1 the T/C [2] was 100 % of control, the T/C [4] was 95 % of control and the T/C [13] was 88 % of control.

With O=S(=O)(OCC1C2CC3C(C2)C13)c1ccc(Br)cc1 (centres undefined) the T/C (endpoint: mean survival time, dose: 100.0 mg/kg/injection, schedule: Q04DX003 (ip), vehicle: other) was 101 % of control, the T/C (endpoint: mean survival time, dose: 200.0 mg/kg/injection, schedule: Q04DX003 (ip), vehicle: other) was 100 % of control and the T/C (endpoint: mean survival time, dose: 400.0 mg/kg/injection, schedule: Q04DX003 (ip), vehicle: other) was 91 % of control.

Cc1cccc(C)c1N=C(c1ccccc1)N(O)c1ccccc1 was tested, and the T/C (endpoint: mean survival time, dose: 1.88 mg/kg/injection, schedule: Q01DX009 (ip), vehicle: saline with Tween-80) was 101 % of control, the T/C (endpoint: mean survival time, dose: 1.88 mg/kg/injection, schedule: Q04DX003 (ip), vehicle: saline) was 93 % of control and the T/C (endpoint: mean survival time, dose: 3.75 mg/kg/injection, schedule: Q01DX009 (ip), vehicle: saline with Tween-80) was 95 % of control. For the same molecule, the T/C (endpoint: mean survival time, dose: 3.75 mg/kg/injection, schedule: Q04DX003 (ip), vehicle: saline) was 96 % of control, the T/C (endpoint: mean survival time, dose: 7.5 mg/kg/injection, schedule: Q01DX001 (ip), vehicle: saline) was 103 % of control and the T/C (endpoint: mean survival time, dose: 7.5 mg/kg/injection, schedule: Q01DX009 (ip), vehicle: saline with Tween-80) was 98 % of control. The T/C (endpoint: mean survival time, dose: 7.5 mg/kg/injection, schedule: Q04DX003 (ip), vehicle: saline) was 98 % of control.

With CC(C)(C)OC(=O)NOC(=O)C(C)(C)C the T/C [11] was 101 % of control, the T/C [12] was 100 % of control and the T/C [2] was 96 % of control. The T/C [4] was 89 % of control and the T/C [13] was 87 % of control.

In the case of O=C(CN1CC1)NCCCCCCCCCNC(=O)CN1CC1, the T/C (endpoint: mean survival time, dose: 22.0 mg/kg/injection, schedule: Q01DX001 (ip), vehicle: carboxymethylcellulose (CMC)) is reported as 113 % of control and the T/C (endpoint: mean survival time, dose: 33.0 mg/kg/injection, schedule: Q01DX001 (ip), vehicle: carboxymethylcellulose (CMC)) is reported as 117 % of control.

In the case of N=C1CCCS1, the T/C (endpoint: median survival time, dose: 25.0 mg/kg/injection, schedule: Q01DX009 (ip), vehicle: saline) is reported as 112 % of control, the T/C (endpoint: median survival time, dose: 50.0 mg/kg/injection, schedule: Q01DX009 (ip), vehicle: saline) is reported as 116 % of control and the T/C (endpoint: median survival time, dose: 100.0 mg/kg/injection, schedule: Q01DX009 (ip), vehicle: saline) is reported as 122 % of control.

In the case of [Br][Pt+2][Br].[NH-]CC(=O)O.[NH-]CC(=O)O, the T/C (endpoint: mean survival time, dose: 25.0 mg/kg/injection, schedule: Q01DX009 (ip), vehicle: Klucel (hydroxypropylcellulose) (HPC)) is reported as 101 % of control, the T/C (endpoint: mean survival time, dose: 50.0 mg/kg/injection, schedule: Q01DX009 (ip), vehicle: Klucel (hydroxypropylcellulose) (HPC)) is reported as 90 % of control and the T/C (endpoint: mean survival time, dose: 50.0 mg/kg/injection, schedule: Q04DX003 (ip), vehicle: Klucel (hydroxypropylcellulose) (HPC)) is reported as 96 % of control. For the same molecule, the T/C (endpoint: mean survival time, dose: 100.0 mg/kg/injection, schedule: Q01DX009 (ip), vehicle: Klucel (hydroxypropylcellulose) (HPC)) was 86 % of control, the T/C (endpoint: mean survival time, dose: 100.0 mg/kg/injection, schedule: Q04DX003 (ip), vehicle: Klucel (hydroxypropylcellulose) (HPC)) was 102 % of control and the T/C (endpoint: mean survival time, dose: 200.0 mg/kg/injection, schedule: Q04DX003 (ip), vehicle: Klucel (hydroxypropylcellulose) (HPC)) was 95 % of control.
